Data as given in ChEMBL document CHEMBL1143511, “Antitubercular agents. Part 1: synthesis of phthalimido- and naphthalimido-linked phenazines as new prototype antitubercular agents” (2005).
In brackets after ≈: the same amount, converted by molar mass.

How the values were obtained:
Assay type in all cases: functional
[1] = system: Mycobacterium tuberculosis; assay: Minimum inhibitory concentration tested against Mycobacterium tuberculosis resistant clinical isolates; Range 8->16 ug/mL
[2] = system: Mycobacterium tuberculosis; assay: Minimum inhibitory concentration tested against Mycobacterium tuberculosis resistant clinical isolates
[3] = system: Mycobacterium tuberculosis; assay: Minimum inhibitory concentration tested against Mycobacterium tuberculosis resistant clinical isolates; Range:1-4 ug/ml
[4] = system: Mycobacterium tuberculosis; assay: Minimum inhibitory concentration tested against Mycobacterium tuberculosis resistant clinical isolates; Range 8-16 ug/mL

Row | Compound | MIC [2] [µg/mL] | other results
1 | NNC(=O)c1ccncc1 [ISONIAZID] |  | MIC [1]: > 16 µg/mL
2 | O=C1c2cccc3cccc(c23)C(=O)N1CCCCN1CCN(CC/N=c2/cc3n(-c4ccc(Cl)cc4)c4ccccc4nc-3cc2Nc2ccc(Cl)cc2)CC1 | > 16 | 
3 | O=C1c2cccc3cccc(c23)C(=O)N1CCCN1CCN(CC/N=c2/cc3n(-c4ccc(Cl)cc4)c4ccccc4nc-3cc2Nc2ccc(Cl)cc2)CC1 | > 16 | 
4 | O=C1c2ccccc2C(=O)N1CCCCCCN1CCN(CC/N=c2/cc3n(-c4ccc(Cl)cc4)c4ccccc4nc-3cc2Nc2ccc(Cl)cc2)CC1 |  | MIC [3]: 4 µg/mL (≈ 5.18 µM)
5 | O=C1c2ccccc2C(=O)N1CCCN1CCN(CC/N=c2/cc3n(-c4ccc(Cl)cc4)c4ccccc4nc-3cc2Nc2ccc(Cl)cc2)CC1 | > 16 | 
6 | O=C1c2cccc3cccc(c23)C(=O)N1CCCCCN1CCN(CC/N=c2/cc3n(-c4ccc(Cl)cc4)c4ccccc4nc-3cc2Nc2ccc(Cl)cc2)CC1 | > 16 | 
7 | O=C1c2ccccc2C(=O)N1CCCCN1CCN(CC/N=c2/cc3n(-c4ccc(Cl)cc4)c4ccccc4nc-3cc2Nc2ccc(Cl)cc2)CC1 | > 16 | 
8 | O=C1c2ccccc2C(=O)N1CCCCCN1CCN(CC/N=c2/cc3n(-c4ccc(Cl)cc4)c4ccccc4nc-3cc2Nc2ccc(Cl)cc2)CC1 |  | MIC [3]: 4 µg/mL (≈ 5.27 µM)
9 | O=C1c2cccc3cccc(c23)C(=O)N1CCCCCCN1CCN(CC/N=c2/cc3n(-c4ccc(Cl)cc4)c4ccccc4nc-3cc2Nc2ccc(Cl)cc2)CC1 |  | MIC [4]: 16 µg/mL (≈ 19.4 µM)
